Test results: paper PMC5700161, “Structure of human immunoproteasome with a reversible and noncompetitive inhibitor that selectively inhibits activated lymphocytes” (Nature Communications, 2017)
“Also recorded” adds a separate entry of the source. Where two headings read alike, the source gives them in different places.

Assays:
β1i = β1i (Homo sapiens, UniProt P28065); assay: IC50 against β1i of human immunoproteasome (Ac-PAL-AMC)
Experimental: (§2) IC50s of all compounds against β5i and β5c (Table 2) and against β1i, β2i, β1c, and β2c (Supplementary Table 1) were determined following reported methods[8].

β2i = β2i (Homo sapiens, UniProt P40306); assay: IC50 against β2i of human immunoproteasome (Z-VLR-AMC)
Experimental: as §2

β2c = β2c (Homo sapiens, UniProt Q99436); assay: IC50 against β2c of human constitutive proteasome (Z-VLR-AMC)
Experimental: as §2

β1c = β1c (Homo sapiens, UniProt P28072); assay: IC50 against β1c of human constitutive proteasome (Z-LLE-AMC)
Experimental: as §2

human β5i = human β5i (Homo sapiens, UniProt P20618+P28062); assay: IC50 determination against human β5i of i-20S; conditions: for reduction in potency against β5i: in comparing to PKS21221
Experimental: as §2

human β5c = human β5c (Homo sapiens, UniProt P20618+P28074); assay: IC50 determination against human β5c of c-20S
Experimental: as §2

β5c (c-20S) [1] = target: T1, β5c (c-20S) (Homo sapiens, UniProt P20618+P28074); assay: Reversibility: dialysis of pre-incubated c-20S and inhibitor; assay type: biochemical; conditions: dialysis of pre-incubated mixture of c-20S and inhibitor
Excerpt: (§1) With increasing concentrations of PKS21004, both V max and K M decreased (Fig. 1d–g and Supplementary Fig. 1). […] This class thus joins a growing list of noncompetitive proteasome inhibitors[5],[30].

β5i (i-20S) = target: T2, β5i (i-20S) (Homo sapiens, UniProt P20618+P28062); assay: Kinetics studies of modality of inhibition against β5i; assay type: biochemical
T2 construct: purchased Boston Biochem
Experimental: Data as in d are shown in double reciprocal plots in e, and data from f in g. […] Data are means ± SEM of three independent experiments […]
as §1
Supplementary Figure 11. Inhibition kinetics of PKS21221 against i-20S β5i. (A) Steady state velocities of the Ac-ANW-AMC hydrolysis at 10, 15, 25, 35 µM by i-20S β5i (0.4 nM) in the presence of PKS21221 at indicated concentrations were determined at 37 °C and plotted by RFU versus substrate concentration (A); values of KM, Ki and α were estimated by PRISM using equation V = (Vmax / (1 + I / (α*Ki))) * S / (KM * (1+ I / Ki) / (1 + I / (α*Ki)) + S); (B) Lineweaver-Burk plot of the data in (A). (C) Plot of KM versus concentrations of PKS21221 indicates a mixed type inhibition. (D) Plot of Vmax versus concentrations of PKS21221.
(1 picture or pasted object on this page, not shown here)

β5c (c-20S) [2] = target: T1, β5c (c-20S); assay: Kinetics studies of modality of inhibition against β5c; assay type: biochemical
Excerpt: Data as in d are shown in double reciprocal plots in e, and data from f in g. […] Data are means ± SEM of three independent experiments
as §1

[3] = read-out: IC50 1i - PAL (β1i), substrate Ac-PAL-AMC
[4] = read-out: IC50 2i - VLR (β2i), substrate Z-VLR-AMC
[5] = read-out: IC50 2c - VLR (β2c), substrate Z-VLR-AMC
[6] = read-out: IC50 1c - LLE (β1c), substrate Z-LLE-AMC
[7] = read-out: IC50 against human β5i
[8] = fit to equation for noncompetitive inhibitors

| SMILES | IC50 (β1i; [3]) | IC50 (β2i; [4]) | IC50 (β2c; [5]) | IC50 (β1c; [6]) | inhibitory activity against β5i (in words) (human β5i) | other results |
| --- | --- | --- | --- | --- | --- | --- |
| CC(C)(C)NC(=O)C[C@H](NC(=O)CCc1ccccc1)C(=O)NCCNC(=O)c1cccc(-c2ccc(F)cc2)c1 [PKS21026] | > 50 µM | > 50 µM | > 50 µM | > 50 µM | – | – |
| CC(C)(C)NC(=O)C[C@H](NC(=O)CCc1ccccc1)C(=O)NCCNC(=O)c1cc(-c2ccccc2F)ccc1F [PKS21187] | > 50 µM | > 50 µM | > 50 µM | > 50 µM | – | selectivity for β5i over β5c (human β5i): ~ 20 fold; IC50 (human β5i; [7]): 0.015 µM |
| CC(=O)N[C@@H](CC(=O)NC(C)(C)C)C(=O)NCCNC(=O)c1cc(-c2ccccc2F)ccc1F [PKS21294] | > 50 µM | > 50 µM | > 50 µM | > 50 µM | – | reduction in potency against β5c (human β5c; in comparing to PKS21221): 120 fold; reduction in potency against β5i (human β5i): 150 fold |
| CC(C)(C)NC(=O)C[C@H](NC(=O)CCc1ccccc1)C(=O)NCCNC(=O)c1cccc(-c2ccccc2)c1 [PKS21004] | – | – | – | – | – | reversibility of β5c inhibition; β5c activity after dialysis (β5c (c-20S) [1]): reversibly inhibits; also recorded: fully restored; α for β5i (αi-20S) (β5i (i-20S)): ≈ 0.28; α for β5i (β5i (i-20S); as printed in legend of Fig. 1): 0.28; Ki (β5i (i-20S); [8]): 0.077 µM; modality of inhibition of β5i (β5i (i-20S); versus substrate): noncompetitively; IC50 (β1i): > 50 µM; α for β5c (αc-20S) (β5c (c-20S) [2]): 0.65 and ≈ 0.65; Ki (β5c (c-20S) [2]; [8]): 0.55 µM; modality of inhibition of β5c (β5c (c-20S) [2]; versus substrate): noncompetitively; IC50 (β2i): > 50 µM; IC50 (β2c): > 50 µM; Hill coefficient constant, inhibition of β5c (human β5c): ~ 1; IC50 (human β5c): 0.326 µM; IC50 (β1c): > 50 µM; Hill coefficient constant, inhibition of β5i (human β5i): ~ 1; IC50 (human β5i): 0.058 µM |
| CC(C)(C)NC(=O)C[C@H](NC(=O)CCc1ccccc1)C(=O)NCCNC(=O)c1ccc(-c2ccccc2)cc1 [PKS21003] | – | – | – | – | inactive | IC50 (β1i): > 50 µM; IC50 (β2i): > 50 µM; IC50 (β2c): > 50 µM; IC50 (human β5c): > 100 µM; inhibitory activity against β5c (in words) (human β5c): inactive; IC50 (β1c): > 50 µM; IC50 (human β5i): > 100 µM |
| CC(C)(C)NC(=O)C[C@H](NC(=O)CCc1ccccc1)C(=O)NCCNC(=O)c1cc(-c2cccc(F)c2)ccc1F [PKS21195] | > 50 µM | > 50 µM | > 50 µM | > 50 µM | – | – |
| CC(C)(C)OC(=O)N[C@@H](CC(N)=O)C(=O)NCCNC(=O)c1cc(-c2ccccc2F)ccc1F [PKS21281] | > 50 µM | > 50 µM | > 50 µM | > 50 µM | abolished the inhibitory activities | inhibitory activity against β5c (in words) (human β5c): abolished the inhibitory activities |
| Cc1ccc(S(=O)(=O)NCC(=O)NCCNC(=O)c2cc(-c3ccccc3F)ccc2F)cc1 [PKS21289] | > 50 µM | > 50 µM | > 50 µM | > 50 µM | eliminated inhibitory activity | inhibitory activity against β5c (in words) (human β5c): eliminated inhibitory activity |
| Cc1ccc(S(=O)(=O)N[C@@H](C)C(=O)NCCNC(=O)c2cc(-c3ccccc3F)ccc2F)cc1 [PKS21290] | > 50 µM | > 50 µM | > 50 µM | > 50 µM | eliminated inhibitory activity | inhibitory activity against β5c (in words) (human β5c): eliminated inhibitory activity |
| CC(C)(C)NC(=O)C[C@H](NC(=O)CCc1ccccc1)C(=O)NCCNC(=O)c1cc(-c2ccccc2)ccc1F [PKS21196] | > 50 µM | > 50 µM | > 50 µM | > 50 µM | – | – |
| CC(C)(C)NC(=O)C[C@H](NC(=O)CCc1ccccc1)C(=O)NCCNC(=O)c1ccc2ccccc2c1 [PKS21025] | > 50 µM | > 50 µM | > 50 µM | > 50 µM | – | selectivity for β5i over β5c (human β5i): 26 fold; improvement of potency against β5i (human β5i; relative to PKS3080): 3 fold |
| CC(C)(C)NC(=O)C[C@H](NC(=O)CCc1ccccc1)C(=O)NCCNC(=O)c1cccc2ccccc12 [PKS3080] | > 50 µM | > 50 µM | > 50 µM | > 50 µM | – | IC50 (human β5c; read-out: IC50 against human β5c): 1.22 µM; IC50 (human β5i; [7]): 0.37 µM |
| CC(C)(C)NC(=O)C[C@H](NC(=O)CCc1ccccc1)C(=O)NCCNC(=O)c1cccc(-c2ccc(C#N)cc2)c1 [PKS21028] | > 50 µM | > 50 µM | > 50 µM | > 50 µM | – | – |
| CC(CNC(=O)c1cccc(-c2ccccc2)c1)NC(=O)[C@H](CC(=O)NC(C)(C)C)NC(=O)CCc1ccccc1 (some centres unmarked) [PKS21018] | > 50 µM | > 50 µM | > 50 µM | > 50 µM | – | – |
| Cc1ccc(S(=O)(=O)N[C@@H](CC(N)=O)C(=O)NCCNC(=O)c2cc(-c3ccccc3F)ccc2F)cc1 [PKS21288] | > 50 µM | > 50 µM | > 50 µM | > 50 µM | eliminated inhibitory activity | inhibitory activity against β5c (in words) (human β5c): eliminated inhibitory activity |
| CC(C)(C)NC(=O)C[C@H](NS(=O)(=O)C1CC1)C(=O)NCCNC(=O)c1cc(-c2ccccc2F)ccc1F [PKS21293] | > 50 µM | > 50 µM | > 50 µM | > 50 µM | – | selectivity for β5i over β5c (human β5i): 64 fold; reduction in potency against β5i (human β5i): 3.7 fold |
| CC(C)(C)NC(=O)C[C@H](NC(=O)OC(C)(C)C)C(=O)NCCNC(=O)c1cc(-c2ccccc2F)ccc1F [PKS21277] | > 50 µM | > 50 µM | > 50 µM | > 50 µM | modestly potent | selectivity for β5i over β5c (human β5i): 36 fold |
